Experimental data from patent US8617819B2, “Polymers for analyte detection” (Massachusetts Institute of Technology, priority 2004, dated 2013).

Experiments:
[1] = test system: mannose binding (wild type) E. coli strain; assay: fluorescent staining / clustering of mannose binding (wild type) E. coli; format: cell-based; conditions: 30 minutes, OD600 1.0, washed twice with PBS
Experimental: (§1) Two bacterial strains that differed only in their mannose binding properties were used to assess whether the mannosylated PPE 22a could fluorescently stain E. coli. In addition to a strain that binds to mannose, a second strain that is mutated in its mannose binding protein (FimH) to abolish mannose binding was used. The non-functionalized polymer 21, the mannosylated polymer 22a, and 2′-fluorescein aminoethyl mannoside were individually incubated with these bacterial strains. After incubating a 1 ml bacterial suspension at an OD600 of 1.0 with the appropriate polymer or dye labeled mannose for 30 minutes, the suspensions were centrifuged to pellet the cells. The supernatant solution containing unbound polymer or dye labeled mannose was discarded and the cells were washed twice with phosphate buffered saline (PBS, pH 7.2). The bacteria were then resuspended in PBS. […]
(§2) Binding of mannosylated polymer to bacteria was imaged using laser scanning confocal microscopy and fluorescence microscopy. […]
(§3) FIGS. 8A-8B illustrate laser scanning confocal microscopy images. […] FIG. 8D is a conventional fluorescence spectra of polymer 22a in PBS (solid line) and normalized fluorescence spectra of a bacterial cluster obtained using confocal microscopy (dotted line).

[2] = test system: E. coli strain mutated in its mannose binding protein (FimH); assay: fluorescent staining / clustering of FimH mutant (non-mannose binding) E. coli; format: cell-based; conditions: 30 minutes, OD600 1.0, washed twice with PBS
Experimental: as §1, §2, §3

sheep erythrocytes = assay: hemagglutination inhibition of sheep erythrocytes; format: cell-based
[3] = Stern-Volmer quenching of polymer 1 by streptavidin-free dyes; format: binding; conditions: free dye added to polymer 1, 50 mM Tris buffer pH 7.4
Experimental: This mechanism generally requires fairly close proximity between the donor and acceptor chromophores. To study these interactions, the Stern-Volmer (KSV) quenching constants were determined from fluorescence emission and lifetime measurements in 50 mM Tris buffer at pH 7.4. Upon the addition of the streptavidin-free fluorescent dyes (fluorescein, RhB, and sulforhodamine 101, the Texas Red™ parent dye) to polymer 1, the apparent KSV values were determined to be 26,300 M^−1, 91,800 M^−1 and 97,900 M^−1, respectively. […] The dyes therefore may have an inherent affinity for the conjugated polymer backbone. A more planar conformation and greater hydrophobic character for Texas Red™, compared to RhB and fluorescein, may permit better stacking and orbital interaction with the CP backbone, allowing for greater DET. In the case of dye-labeled streptavidin, biological recognition first may bring the dyes into closer proximity with the polymer. Conformational and hydrophobic characteristics of the dyes then may tailor the extent of orbital mixing with the polymer: the flatter Texas Red™ may interact more intimately with the planar conjugated polymer backbone then the other dyes. This may favor DET and can explain the better ET that was observed, even at decreased spectral overlap between the CP donor and dye acceptor.

[4] = thin film (solid phase) energy transfer / dye association assay; format: binding; conditions: for association of free dye with polymer thin films: polymers 3 and 4, thin films
Experimental: Thin film experiments with polymers 3 and 4 were also conducted in this example. Incubation with the dye-labeled streptavidin was performed in the presence of Triton X-100, a non-ionic detergent, to diminish non-specific binding. […] The spectra was scaled to 454 nm.
To perform energy transfer assays in solid phase, the following general protocol was used. The microscope coverslips were pretreated in 1,1,1,3,3,3-hexamethyldisilazane. The polymer solutions at 1 mg/ml in chloroform were spin-cast onto microscope coverslips at a spin rate of 3000 rpm for 1 minute. The coverslips were put under vacuum for 2 h, then were incubated in a solution of dye labeled streptavidin or dye for 1 h. The coverslips were then washed with deionized water, blotted dry and dried under vacuum for a minimum of 5 h. The excitation wavelength at 400 nm was chosen, and the emission spectrum was taken from 415 nm-700 nm.

Molecule: 2′-Fluorescein aminoethyl mannoside
- binding / fluorescent labelling of E. coli after incubation, pelleting and washing [1]: Neither polymer 21 nor the 2′-fluorescein aminoethyl mannoside appeared to bind either E. coli strain
- binding / fluorescent labelling of E. coli after incubation, pelleting and washing [2]: Neither polymer 21 nor the 2′-fluorescein aminoethyl mannoside appeared to bind either E. coli strain
- INHIBITING DOSE (sheep erythrocytes): 0.01 M

Molecule: NCCOC1O[C@H](CO)[C@@H](O)[C@H](O)[C@@H]1O (stereo partly drawn) [2′-Aminoethyl mannoside]
- INHIBITING DOSE (sheep erythrocytes): 0.01 M

Molecule: CCN(CC)c1ccc2c(-c3ccccc3C(=O)O)c3ccc(=[N+](CC)CC)cc-3oc2c1.[Cl-] [RhB, rhodamine B]
- apparent Stern-Volmer quenching constant KSV [3]: 91,800 M^−1
- association of free dye with polymer thin films [4]: associated with both 3 and 4

Molecule: O=S(=O)([O-])c1cc(S(=O)(=O)O)ccc1C1=c2cc3c4c(c2Oc2c1cc1c5c2CCCN5CCC1)CCC[N+]=4CCC3 [sulforhodamine 101]
- apparent Stern-Volmer quenching constant KSV [3]: 97,900 M^−1
- association of free dye with polymer thin films [4]: associated with neither

Molecule: RhB-strept: rhodamine B-labeled streptavidin, about 4.6 dyes/protein
- thin film ET of dye-labeled streptavidin ([4]; polymers 3 and 4, in the presence of Triton X-100): exhibited better ET than T-red-strept
